Results as given in patent publication US5506102A (priority 1993, dated 1996).

Biological target: T1, PR-B (Homo sapiens, UniProt P06401)
T1 sequence (P06401 1-933): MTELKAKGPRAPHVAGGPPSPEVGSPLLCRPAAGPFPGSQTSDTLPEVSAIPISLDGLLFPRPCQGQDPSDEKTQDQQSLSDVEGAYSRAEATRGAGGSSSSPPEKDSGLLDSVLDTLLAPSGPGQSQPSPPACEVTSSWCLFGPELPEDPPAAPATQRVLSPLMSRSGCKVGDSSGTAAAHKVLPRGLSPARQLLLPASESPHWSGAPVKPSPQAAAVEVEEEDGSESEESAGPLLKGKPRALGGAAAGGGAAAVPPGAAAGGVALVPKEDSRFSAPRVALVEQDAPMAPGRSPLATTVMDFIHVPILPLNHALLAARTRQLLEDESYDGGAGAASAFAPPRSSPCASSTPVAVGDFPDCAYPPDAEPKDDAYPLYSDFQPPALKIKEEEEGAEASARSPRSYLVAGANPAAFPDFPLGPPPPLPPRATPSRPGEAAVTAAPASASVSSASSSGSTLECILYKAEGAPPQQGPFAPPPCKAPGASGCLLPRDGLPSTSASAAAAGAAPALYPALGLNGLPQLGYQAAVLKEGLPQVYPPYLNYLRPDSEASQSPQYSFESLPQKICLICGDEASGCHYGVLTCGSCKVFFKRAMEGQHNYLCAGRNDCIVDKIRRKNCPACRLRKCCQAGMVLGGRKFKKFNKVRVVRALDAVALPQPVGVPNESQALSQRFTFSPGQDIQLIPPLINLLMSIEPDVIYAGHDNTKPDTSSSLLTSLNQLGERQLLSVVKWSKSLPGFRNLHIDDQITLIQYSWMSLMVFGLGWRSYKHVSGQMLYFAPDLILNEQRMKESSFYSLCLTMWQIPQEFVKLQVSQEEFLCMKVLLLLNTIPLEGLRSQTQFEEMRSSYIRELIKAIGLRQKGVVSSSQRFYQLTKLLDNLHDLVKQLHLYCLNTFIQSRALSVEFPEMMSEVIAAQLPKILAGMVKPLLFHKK
Assay: PR-B regulation of TAT promoter
Assay type: cell-based
Design: expressed in transfected cells; host or cells: CV-1, HepG2 (PRE2 tk-LUC); HeLa, also HepG2 and CV-1 (TAT promoter)
Conditions: data not shown
Method: FIGS. 4A-4B are a series of graphs showing CV-1 ([…]) or HepG2 (FIG. 4B) cells that were transiently transfected with either […] of phPR-B or phPR-A alone, or phPR-B in the presence of increasing concentrations of phPR-A, together with 5 µg/ml of the PRE2 tk-LUC reporter and 5 µg/ml of pCH110 as an internal control. HeLa cells (FIG. 4C) were transfected with either phPR-B or phPR-A together with 5 µg/ml of the pTAT2950 reporter and 5 µg/ml of pCH110 as an internal control. […] The relative luciferase activity is calculated by dividing the normalized luciferase value at a given point by that obtained in the absence of transfected receptor or ligand. The data shown represent the mean +/- average deviation from the mean of triplicate estimations;
The 2.9 Kb fragment resulting from the digestion of the pTAT-CAT plasmid, and the 6.7 Kb fragment, containing the luciferase gene and the backbone resulting from MMTV-LUC digestion products, were ligated to create the plasmid TAT2950-LUC.
Cells were seeded in 12-well, 96-well or 10 cm tissue culture plates. […] 20 μg of DNA/ml of transfection buffer were used in each transfection reaction. […]

CC(=O)[C@H]1CC[C@H]2[C@@H]3CCC4=CC(=O)CC[C@]4(C)[C@H]3CC[C@]12C [progesterone]
TAT promoter response (CV-1, PR-B): unresponsive to either receptor subtype | TAT promoter response to progesterone (HepG2, phPR-B): responded to progesterone
